Like-named read-outs stand apart in the source and are kept apart here. No end group written: not given here.
How the values were obtained:
GPR15 (human) = molecular target: T1, GPR15 (human) (UniProt P49685)
T1 sequence: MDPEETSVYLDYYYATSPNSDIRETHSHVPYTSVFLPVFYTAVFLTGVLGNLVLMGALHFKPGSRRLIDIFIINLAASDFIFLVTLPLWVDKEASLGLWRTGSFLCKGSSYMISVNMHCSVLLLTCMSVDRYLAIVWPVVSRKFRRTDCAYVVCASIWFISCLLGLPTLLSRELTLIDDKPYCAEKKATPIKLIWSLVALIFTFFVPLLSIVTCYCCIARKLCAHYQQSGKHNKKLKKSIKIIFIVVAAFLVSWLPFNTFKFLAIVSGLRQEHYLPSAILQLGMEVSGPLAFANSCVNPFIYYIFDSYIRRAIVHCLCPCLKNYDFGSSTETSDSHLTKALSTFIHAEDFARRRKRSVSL

GPR32 = experiment: Repeat of proposed literature pairing (mass redistribution and/or internalization); type: cell-based, human
Description: (§1) DMR assays provide a single integrated readout of ligand-dependent cellular response, utilizing an optical biosensor in specialized microplates to detect wavelength shifts of reflected light as it passes through the biosensor and the lower portion of the cell (∼150-200 nm). As a signal pathway agnostic approach, DMR assays are well-suited to the study of GPCRs ([Fang et al., 2008], [Schröder et al., 2011]). The mass redistribution response (Δ picometer (pm)) likely reflects a number of intracellular events, including cytoskeletal rearrangement, protein trafficking and receptor internalization. Orphan receptor-expressing cells were gently washed twice with assay buffer (HBSS with 1 mM CaCl2, 1 mM MgCl2, 20 mM HEPES, 0.01% pluronic F-68, pH 7.4) containing 0.1% DMSO and cells were equilibrated for 90 min at 22°C in the EPIC Benchtop (BT) System (Corning) to establish a stable DMR signal. After 3-5 min baseline recordings, peptides (10 μM) were added in duplicate wells using an electronic 384-channel Viaflo pipette (Integra Biosciences, Switzerland) and DMR responses were measured for 60 min at 22°C. 100 nM norepinephrine was included as an internal assay control to assess the cellular DMR response via endogenously-expressed adrenoceptors in the TREx 293 cells. Real-time data were processed using the BT to column converter MS-Excel macro (Corning) and analyzed in GraphPad Prism 7.0. DMR recordings in peptide screening experiments were buffer and solvent corrected and the area under the curve (AUC) was quantified. For subsequent validation experiments, peptides were diluted in assay buffer containing 0.1% DMSO and DMR assays were performed as above. […] Data represent mean ± standard error of the mean (SEM) from at least 3 biologically independent experiments.
(§2) A TR-FRET real-time internalization assay was used to examine peptide-dependent changes in orphan receptor localization as described previously ([Foster and Bräuner-Osborne, 2018]). Surface-expressed SNAP-tagged receptors were labeled with a cell-impermeable luminescent terbium cryptate (100 nM SNAP Lumi4-Tb; Cisbio, France) for 1 hr at 37°C. Cells were washed to remove excess terbium and incubated with fluorescein-O-acetic acid (100 μM; Sigma Aldrich) for 5 min at 37°C. Peptides were added as for DMR assays, and internalization responses were recorded for 60 min at 37°C using an EnVision 2104 Multimode plate reader (PerkinElmer). 100 nM GLP-1 was used as a positive control for SNAP-GLP1R internalization. Real-time internalization responses were calculated based on TR-FRET (excitation 340 nm; emission 520 nm and 615 nm), and were expressed as the ratio between donor (terbium) and acceptor (fluorescein) emission. For peptide screening analysis (both DMR and internalization assays), we calculated the area under the curve from the real-time traces. As the magnitude of the responses was variable between orphan receptor targets, particularly for the SNAP-tag based internalization assay where the signal is dependent on receptor surface expression, the AUC values were normalized to their respective plate averages and expressed as fold change. Validation experiments for receptor internalization were performed as above. Internalization data was processed in MS-Excel and area under the curve was used to generate concentration-response curves using GraphPad Prism 7.0. Data represent mean ± standard error of the mean (SEM) from at least 3 biologically independent experiments.

human GPCRs = system: human GPCRs; design: method as in Guide to Pharmacology database; settings: max reported value, ref Guide to Pharmacology database, cited from earlier work
Description: Supplement mmc1.xlsx, sheet "HumanGPCRLigands" | column: pKi_value; pKd_value; pEC50_value; pIC50_value

[1] = molecular target: T2, melanocortin MC4 receptor (Homo sapiens, UniProt P32245); experiment: β-arrestin recruitment (Tango), known peptide receptors; type: cell-based; settings: MC4R; mean, n = 3
T2 construct: host or cells: HTLA cells (HEK293-derived)
T2 sequence (P32245 whole entry): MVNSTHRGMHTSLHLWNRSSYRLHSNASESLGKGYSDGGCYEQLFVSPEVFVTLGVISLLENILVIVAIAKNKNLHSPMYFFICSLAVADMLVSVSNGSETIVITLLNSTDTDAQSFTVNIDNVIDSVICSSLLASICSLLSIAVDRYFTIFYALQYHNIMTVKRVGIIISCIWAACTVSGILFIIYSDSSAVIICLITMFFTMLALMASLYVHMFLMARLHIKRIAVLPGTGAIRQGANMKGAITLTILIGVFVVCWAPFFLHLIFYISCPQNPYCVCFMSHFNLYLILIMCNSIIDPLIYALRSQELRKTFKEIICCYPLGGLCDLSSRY
Experimental: (§3) The peptide library was additionally screened against 120 GPCR targets in parallel, including all available orphan receptors and 27 known class A peptide receptors using the Tango assay platform ([Kroeze et al., 2015]). Briefly, HTLA cells (a HEK293 cell line stably expressing a tTA-dependent luciferase reporter and a β-arrestin2-TEV fusion gene) were plated 10,000 cells/well in poly-L-lysine–coated clear-bottom white 384-well plates in DMEM supplemented with 10% FBS, 100 U/ml penicillin and 100 μg/ml streptomycin, 2 μg/ml puromycin and 100 μg/ml hygromycin B. 24 hr later, cells were transfected with Tango GPCR constructs using the calcium phosphate method ([Jordan et al., 1996]). The next day, culture medium was changed to DMEM + 1% dFBS and 10 μM peptides were added for overnight stimulation. Bright-Glo solution (Promega) was incubated for 15–20 min at room temperature, and luminescence was counted using a Trilux luminescence counter (Wallac).
(§4) For subsequent peptide validation experiments using Tango assays, HTLA cells were transiently transfected in 10 cm dishes with the receptor of interest using polyethylenimine (PEI) ([Longo et al., 2013]). After 24 hr, 25,000 cells/well were plated in clear bottom, white-walled 384-well plates. Assays were performed as described above, with luminescence measured using an EnSpire 2300 Multimode plate reader (PerkinElmer). Luminescence counts were exported into Excel and were analyzed using GraphPad Prism 7.

NPFF2 = experiment: as above; type: cell-based, human; settings: endogenous ligand(s) included in peptide library
Description: Supplement mmc6.xlsx, sheet "Peptide GPCR controls" | column: Confirmed?

GPR83 = experiment: Repeat of proposed literature pairing (mass redistribution and/or internalization); type: cell-based, human
Description: as §1, §2

GPR176 = molecular target: T3, GPR176 (Homo sapiens, UniProt Q14439); experiment: β-arrestin recruitment (Tango), indicative pairing; type: cell-based; settings: mean, n = 3
T3 construct: host or cells: HTLA cells (HEK293-derived)
T3 sequence (Q14439 1-515): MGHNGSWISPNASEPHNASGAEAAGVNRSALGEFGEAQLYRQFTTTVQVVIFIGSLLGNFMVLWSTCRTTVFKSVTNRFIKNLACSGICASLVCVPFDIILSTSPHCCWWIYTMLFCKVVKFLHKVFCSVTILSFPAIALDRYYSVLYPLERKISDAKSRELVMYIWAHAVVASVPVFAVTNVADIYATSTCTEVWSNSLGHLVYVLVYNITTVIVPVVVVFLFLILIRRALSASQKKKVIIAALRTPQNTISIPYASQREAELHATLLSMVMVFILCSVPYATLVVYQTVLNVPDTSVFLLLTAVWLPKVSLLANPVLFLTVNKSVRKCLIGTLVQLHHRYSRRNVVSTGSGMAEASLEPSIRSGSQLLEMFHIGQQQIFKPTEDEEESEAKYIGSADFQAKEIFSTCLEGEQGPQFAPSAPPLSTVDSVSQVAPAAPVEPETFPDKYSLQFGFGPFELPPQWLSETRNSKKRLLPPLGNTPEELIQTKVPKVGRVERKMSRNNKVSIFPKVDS
Experimental: as §3, §4

GPR19 = experiment: Repeat of proposed literature pairing (mass redistribution and/or internalization); type: cell-based, human
GPR151 = experiment: as above; type: cell-based, human
Description: as §1, §2

P2RY10 = experiment: as above; type: cell-based, human; settings: for receptor-dependent activation by proposed ligand, P2RY10: repeat of literature pairing across multiple assays, Figure S7A, Tables S5 and S7
Description: as §1, §2

GPR37 = experiment: as above; type: cell-based, human
Description: as §1, §2

GPR37L1 = experiment: as above; type: cell-based, human
Description: as §1, §2

[2] = repeat of literature pairing, Figure S7A, Tables S5 and S7
[3] = receptor galr1_human (GALR1, P47211)
[4] = receptor galr2_human (GALR2, O43603)
[5] = receptor galr3_human (GALR3, O60755)

45-amino acid cleavage variant of GPR15L (peptide)
fold improved potency at GPR15 against the 11-amino acid peptide 64 (assay not given) (GPR15 (human)): 10 fold

CC/C=C\C[C@H](O)/C=C/C=C\C=C\C=C\[C@@H](O)[C@@H](O)C/C=C\CCC(=O)O [RvD1]
Lipid pairing for orphan receptor GPR32 (confirmed/unconfirmed) (GPR32; repeat of literature pairing): Unconfirmed lipid pairings for orphans

CC/C=C\C[C@H](O)/C=C/C=C\C=C\C=C\[C@@H](O)[C@@H](O)C/C=C\CCC(=O)O [resolvin D1]
pEC50_value (human GPCRs; receptor fpr2_human (FPR2, P25090)): 11.9
pEC50_value (human GPCRs; receptor gpr32_human (GPR32), Class A orphans): 11.1
receptor-dependent activation by proposed ligand, GPR32 (GPR32; [2]): no activity
Comment (response in DMR / internalization assays) (GPR32; target GPR32): No response in any assay
Active in DMR/internalization (GPR32; target GPR32, reported ligand tested on receptor-expressing cell line): No

ELEGEQPDGLEHVLEPDTEKADGPYRVEHFRWGNPPKD [Peptide 205]
Emax, Tango (fold over basal) [1]: 4.9 fold over basal
pEC50, Tango (fold over basal) [1]: 6.21

HSQGTFTSDYSKYLDS [Peptide 110]
Emax, Tango (fold over basal) [1]: 4.2 fold over basal
pEC50, Tango (fold over basal) [1]: 5.93

Neuropeptide NPVF; RFRP-3
Confirmed? (confirmation of b-arrestin recruitment) (NPFF2): No

PEN: neuroendocrine peptide PEN, proposed GPR83 ligand (AADHDVGSELPPEGVLGALLRV)
Peptide pairing for orphan receptor GPR83 (confirmed/unconfirmed) (GPR83; repeat of literature pairing): Confirmed peptide pairings for orphans
receptor-dependent activation by proposed ligand, GPR83 (GPR83; repeat of literature pairing across multiple assays, Figure S7A, Tables S5 and S7): selective receptor-dependent activation
Comment (response in DMR / internalization / Tango assays) (GPR83; target GPR83): PEN is included in library (peptide 146) and was purchased separately. Active in DMR, inactive in internalization, but also active in Tango
Active in DMR/internalization (GPR83; target GPR83, reported ligand tested on receptor-expressing cell line): Yes (DMR)

RSVNPYLQ [Peptide 32]
Emax, Tango (fold over basal) (GPR176): 2.3 fold over basal
pEC50, Tango (fold over basal) (GPR176): 5.82

adropin (CHSRSADVDSLSESSPNSSPGPCPEKAPPPQKPSHEGSYLLQP; not fully specified; cysteine pairing not given here; UniProt Q6UWT2 34-76, looked up) [proposed GPR19 ligand]
Peptide pairing for orphan receptor GPR19 (confirmed/unconfirmed) (GPR19; repeat of literature pairing): Unconfirmed peptide pairings for orphans
receptor-dependent activation by proposed ligand, GPR19 (GPR19; [2]): no activity
Comment (response in DMR / internalization assays) (GPR19; target GPR19): No response in any assay
Active in DMR/internalization (GPR19; target GPR19, reported ligand tested on receptor-expressing cell line): No

galanin [reference compound]
pIC50_value (human GPCRs; [3]): 9.9
pKi_value (human GPCRs; [3]): 10.5
pEC50_value (human GPCRs; [4]): 9.1
pIC50_value (human GPCRs; [4]): 9.3
pKi_value (human GPCRs; [4]): 9.1
pIC50_value (human GPCRs; [5]): 7.1
pKi_value (human GPCRs; [5]): 7.2
Peptide pairing for orphan receptor GPR151 (confirmed/unconfirmed) (GPR151; repeat of literature pairing): Unconfirmed peptide pairings for orphans
receptor-dependent activation by proposed ligand, GPR151 (GPR151; [2]): no activity
Comment (response in DMR / internalization assays) (GPR151; target GPR151): Galanin is included in library (peptide 177) and was purchased separately. No response in any assay.
Active in DMR/internalization (GPR151; target GPR151, reported ligand tested on receptor-expressing cell line): No

lysophosphatidic acid
receptor-dependent activation by proposed ligand, P2RY10 (P2RY10): no activity

lysophosphatidylserine [LPS]
pEC50_value (human GPCRs; receptor gp174_human (GPR174), Class A orphans): 7.1
pEC50_value (human GPCRs; receptor gpr34_human (GPR34), Class A orphans): 6.9
Lipid pairing for orphan receptor P2RY10 (confirmed/unconfirmed) (P2RY10; repeat of literature pairing): Confirmed lipid pairings for orphans
receptor-dependent activation by proposed ligand, P2RY10 (P2RY10): selective receptor-dependent activation
receptor-dependent activation by proposed ligand, P2RY10 (P2RY10; listed as lysophosphatidylserine): marginal

peptide 64 (GPR15L_(47-57))
pEC50 of reduced cyclic AMP (cAMP) production (Gi/o) (GPR15 (human)): 6.72 pEC50

prosaptide
Peptide pairing for orphan receptor GPR37 (confirmed/unconfirmed) (GPR37; repeat of literature pairing): Unconfirmed peptide pairings for orphans
receptor-dependent activation by proposed ligand, GPR37 (GPR37; [2]): no activity
Comment (response in DMR / internalization assays) (GPR37; target GPR37): No response in any assay
Active in DMR/internalization (GPR37; target GPR37, reported ligand tested on receptor-expressing cell line): No
Peptide pairing for orphan receptor GPR37L1 (confirmed/unconfirmed) (GPR37L1; repeat of literature pairing): Unconfirmed peptide pairings for orphans
receptor-dependent activation by proposed ligand, GPR37L1 (GPR37L1; [2]): no activity
Comment (response in DMR / internalization assays) (GPR37L1; target GPR37L1): No response in any assay
Active in DMR/internalization (GPR37L1; target GPR37L1, reported ligand tested on receptor-expressing cell line): No

B1: GPR15L (ligand)
peptide: KRRPAKAWSGRRTRLCCHRVPSPNSTNLKGHHVRLCKPCKLEPEPRLWVVPGALPQV
modifications: disulfide (positions not given here)
fold improved potency at GPR15 against the 11-amino acid peptide 64 (assay not given) (GPR15 (human)): 100 fold

From publication PMC6838683, “Discovery of Human Signaling Systems: Pairing Peptides to G Protein-Coupled Receptors” (Cell, 2019)
